The values that follow come from US11779577B2, “Nonselective metabotropic glutamate receptor activators for treatment of anorexia nervosa and binge eating disorder” (The Children's Hospital of Philadelphia, priority 2016, dated 2023).

One data set has as its system ADHD. In words: open-label Phase Ib clinical trial in adolescent ADHD subjects with CNV in an mGluR network gene. The class given is in vivo, human. On the procedure:
Previously, an open-label Phase Ib clinical trial was conducted to study the safety, pharmacokinetics, and efficacy of fasoracetam (fasoracetam monohydrate) in adolescent subjects between the ages of 12 and 17 previously diagnosed with ADHD. Each of the study subjects in this clinical trial had one or more CNV in an mGluR network gene.

The conditions of data set [1]: prior human studies; cited from earlier work.
Data set [2] deals with group I and group II/III mGluRs. As to conditions: in vitro studies (Hirouchi 2000); cited from earlier work.
Data set [3] deals with adenylate cyclase activity. As to conditions: cited from earlier work.
Data set [4] deals with dementia-related cognitive impairment. As to conditions: cited from earlier work.
The subject of a further data set is pediatric ADHD subjects. Conditions: compared to a placebo control; cited from earlier work.

For the compound `O=C1CC[C@H](C(=O)N2CCCCC2)N1` [fasoracetam], the “treatment of ADHD” value with ADHD (adolescent subjects ages 12 to 17 with one or more CNV in an mGluR network gene) is given as “successfully treated”. The appetite entry in the data set on ADHD (children tested in the ADHD clinical study) is “appetite was observed to be improved”. For the same compound, in data set [1], the bioavailability was 79%-97% and the half-life (usually how long it takes for the measured level to halve) was 5 to 6.5 h. For the same compound, in data set [2], the “stimulation of mGluRs” value was “stimulate both group I and group II/III mGluRs”. For the same compound, in data set [3] (by stimulating group II and III mGluRs (Oka 1997)), the “adenylate cyclase activity through group II and III mGluRs” value is recorded as “may also inhibit adenylate cyclase activity”. The “adenylate cyclase activity through group I mGluRs” value in data set [3] (through activation of group I mGluRs (Oka 1997)) was “may stimulate adenylate cyclase activity”. Besides, in data set [4] (Phase I-III trials, dementia-related cognitive impairment), the safety and tolerability entry was “generally safe and well tolerated”. For the same compound, the “effects on psychiatric symptoms” value in data set [4] (Phase III data, cerebral infarct patients and adult dementia patients with cerebrovascular diseases) was “beneficial effects”. Moreover, the efficacy in dementia entry in data set [4] (Phase III trials) is “did not show sufficient efficacy”.

Regarding `NC(=O)CN1CCCC1=O` [piracetam], the ADHD symptoms result in the data set on pediatric ADHD subjects is given as “increase ADHD symptoms”.
